Patent US12295959B2 (priority 2021, dated 2025)

Tests used:
[1] = molecular target: T1, 5-HT2C edited (accession number AAF35842.1) (Homo sapiens, UniProt P28335, I156V/I160V/N158S); test: biochemical; type: binding
Target sequence in this assay (P28335 33-458 I156V/N158S/I160V limits assumed): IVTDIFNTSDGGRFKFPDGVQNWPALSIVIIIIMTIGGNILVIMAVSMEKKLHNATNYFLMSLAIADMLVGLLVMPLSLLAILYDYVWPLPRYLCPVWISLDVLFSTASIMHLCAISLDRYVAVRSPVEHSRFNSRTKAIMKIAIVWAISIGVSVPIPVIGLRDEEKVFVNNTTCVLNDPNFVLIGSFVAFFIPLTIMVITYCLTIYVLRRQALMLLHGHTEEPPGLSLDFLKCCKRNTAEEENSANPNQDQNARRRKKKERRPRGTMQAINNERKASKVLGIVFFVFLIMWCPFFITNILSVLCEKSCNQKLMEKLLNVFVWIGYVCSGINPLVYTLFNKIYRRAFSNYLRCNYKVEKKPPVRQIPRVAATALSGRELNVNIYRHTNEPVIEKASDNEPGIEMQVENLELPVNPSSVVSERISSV

[2] = molecular target: T1, 5-HT2C edited (accession number AAF35842.1); test: cell-based
Target sequence in this assay (P28335 whole entry I156V/N158S/I160V, looked up): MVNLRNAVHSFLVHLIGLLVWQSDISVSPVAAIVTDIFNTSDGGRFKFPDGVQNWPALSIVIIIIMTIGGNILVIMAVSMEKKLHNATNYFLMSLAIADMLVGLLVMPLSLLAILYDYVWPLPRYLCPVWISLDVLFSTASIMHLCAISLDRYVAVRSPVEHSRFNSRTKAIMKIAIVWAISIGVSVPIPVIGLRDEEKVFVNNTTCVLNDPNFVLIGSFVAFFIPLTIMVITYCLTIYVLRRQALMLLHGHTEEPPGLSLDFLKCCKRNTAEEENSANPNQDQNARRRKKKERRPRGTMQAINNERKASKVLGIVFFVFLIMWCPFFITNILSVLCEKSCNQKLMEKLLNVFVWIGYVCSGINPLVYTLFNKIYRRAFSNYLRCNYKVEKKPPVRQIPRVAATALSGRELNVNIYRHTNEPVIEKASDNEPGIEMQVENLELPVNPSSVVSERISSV

[3] = molecular target: 5-HT2C (Homo sapiens, UniProt P28335, I156V/I160V/N158S); test: cell-based
Sequence of 5-HT2C (P28335 33-458 I156V/N158S/I160V limits assumed): as the sequence (P28335 33-458 I156V/N158S/I160V limits assumed) above

SMILES	IC50 [1] [µM]	EC50 [2] [µM]	IC50 [3] [µM]
Cn1c2c(c3c(Oc4ccc(F)cc4)cccc31)CCNCC2 [Compound 23, 10-(4-fluorophenoxy)-6-methyl-1,2,3,4,5,6-hexahydroazepino[4,5-b]indole]	0.01 to 0.1	0.101 to 1	–
c1ccc(Oc2cccc3[nH]c4c(c23)CCNCC4)cc1 [Compound 20, 10-phenoxy-1,2,3,4,5,6-hexahydroazepino[4,5-b]indole]	< 0.01	< 0.01	–
c1ccc(COc2ccc3[nH]c4c(c3c2)CCNCC4)cc1 [Compound 25, 9-(benzyloxy)-1,2,3,4,5,6-hexahydroazepino[4,5-b]indole]	0.01 to 0.1	0.01 to 0.1	> 10
CN1CCc2c(n(C)c3cc(Oc4ccc(F)cc4)ccc23)CC1 [Compound 18, 8-(4-fluorophenoxy)-3,6-dimethyl-1,2,3,4,5,6-hexahydroazepino[4,5-b]indole]	0.101 to 1	0.101 to 1	1 to 10
c1ccc(COc2cccc3c4c([nH]c23)CCNCC4)cc1 [Compound 27, 7-(benzyloxy)-1,2,3,4,5,6-hexahydroazepino[4,5-b]indole]	0.101 to 1	0.101 to 1	–
Cn1c2c(c3c(OCc4ccccc4)cccc31)CCNCC2 [Compound 19, 10-(benzyloxy)-6-methyl-1,2,3,4,5,6-hexahydroazepino[4,5-b]indole]	0.01 to 0.1	0.01 to 0.1	–
CN1CCc2[nH]c3c(OCc4ccccc4)cccc3c2CC1 [Compound 28, 7-(benzyloxy)-3-methyl-1,2,3,4,5,6-hexahydroazepino[4,5-b]indole]	0.101 to 1	0.101 to 1	0.101 to 1
c1ccc(COc2ccc3c4c([nH]c3c2)CCNCC4)cc1 [Compound 3, 8-(benzyloxy)-1,2,3,4,5,6-hexahydroazepino[4,5-b]indole]	0.101 to 1	0.101 to 1	–
CN1CCc2[nH]c3c(Br)ccc(OCc4ccccc4)c3c2CC1 [Compound 29, 10-(benzyloxy)-7-bromo-3-methyl-1,2,3,4,5,6-hexahydroazepino[4,5-b]indole]	< 0.01	> 10	0.01 to 0.1
CN1CCc2[nH]c3cc(OCc4ccccc4)ccc3c2CC1 [Compound 1, 8-(benzyloxy)-3-methyl-1,2,3,4,5,6-hexahydroazepino[4,5-b]indole]	0.101 to 1	1 to 10	–
CN1CCc2c(n(C)c3cccc(Oc4ccc(F)cc4)c23)CC1 [Compound 24, 10-(4-fluorophenoxy)-3,6-dimethyl-1,2,3,4,5,6-hexahydroazepino[4,5-b]indole]	0.01 to 0.1	0.101 to 1	0.01 to 0.1
CN1CCc2[nH]c3cc(OCc4ccc(F)cc4)ccc3c2CC1 [Compound 8, 8-((4-fluorobenzyl)oxy)-3-methyl-1,2,3,4,5,6-hexahydroazepino[4,5-b]indole]	0.101 to 1	1 to 10	1 to 10
CN1CCc2[nH]c3cccc(OCc4ccccc4)c3c2CC1 [Compound 2, 10-(benzyloxy)-3-methyl-1,2,3,4,5,6-hexahydroazepino[4,5-b]indole]	< 0.01	0.01 to 0.1	0.01 to 0.1
CN1CCc2[nH]c3cc(Oc4ccc(F)cc4)ccc3c2CC1 [Compound 16, 8-(4-fluorophenoxy)-3-methyl-1,2,3,4,5,6-hexahydroazepino[4,5-b]indole]	0.101 to 1	1 to 10	> 10
CN1CCc2c(n(C)c3cc(Oc4ccccc4)ccc23)CC1 [Compound 14, 3,6-dimethyl-8-phenoxy-1,2,3,4,5,6-hexahydroazepino[4,5-b]indole]	0.101 to 1	0.101 to 1	> 10
Fc1ccc(Oc2cccc3[nH]c4c(c23)CCNCC4)cc1 [Compound 21, 10-(4-fluorophenoxy)-1,2,3,4,5,6-hexahydroazepino[4,5-b]indole]	< 0.01	< 0.01	–
Cn1c2c(c3ccc(OCc4ccc(F)cc4)cc31)CCNCC2 [Compound 9, 8-((4-fluorobenzyl)oxy)-6-methyl-1,2,3,4,5,6-hexahydroazepino[4,5-b]indole]	0.101 to 1	1 to 10	–
Fc1ccc(Oc2ccc3c4c([nH]c3c2)CCNCC4)cc1 [Compound 15, 8-(4-fluorophenoxy)-1,2,3,4,5,6-hexahydroazepino[4,5-b]indole]	0.101 to 1	0.101 to 1	–
c1ccc(COc2cccc3[nH]c4c(c23)CCNCC4)cc1 [Compound 4, 10-(benzyloxy)-1,2,3,4,5,6-hexahydroazepino[4,5-b]indole]	< 0.01	< 0.01	–
Fc1ccc(COc2ccc3c4c([nH]c3c2)CCNCC4)cc1 [Compound 7, 8-((4-fluorobenzyl)oxy)~1,2,3,4,5,6-hexahydroazepino[4,5-b]indole]	0.101 to 1	0.101 to 1	> 10
CN1CCc2c(n(C)c3cc(OCc4ccccc4)ccc23)CC1 [Compound 6, 8-(benzyloxy)-3,6-dimethyl-1,2,3,4,5,6-hexahydroazepino[4,5-b]indole]	0.101 to 1	1 to 10	–
CN1CCc2c(n(C)c3cc(OCc4ccc(F)cc4)ccc23)CC1 [Compound 10, 8-((4-fluorobenzyl)oxy)-3,6-dimethyl-1,2,3,4,5,6-hexahydroazepino[4,5-b]indole]	0.101 to 1	1 to 10	1 to 10
Cn1c2c(c3ccc(Oc4ccccc4)cc31)CCNCC2 [Compound 13, 6-methyl-8-phenoxy-1,2,3,4,5,6-hexahydroazepino[4,5-b]indole]	0.101 to 1	1 to 10	–
Cn1c2c(c3ccc(Oc4ccc(F)cc4)cc31)CCNCC2 [Compound 17, 8-(4-fluorophenoxy)-6-methyl-1,2,3,4,5,6-hexahydroazepino[4,5-b]indole]	0.01 to 0.1	1 to 10	–
CN1CCc2[nH]c3ccc(OCc4ccccc4)cc3c2CC1 [Compound 26, 9-(benzyloxy)-3-methyl-1,2,3,4,5,6-hexahydroazepino[4,5-b]indole]	0.101 to 1	0.101 to 1	0.101 to 1
c1ccc(Oc2ccc3c4c([nH]c3c2)CCNCC4)cc1 [Compound 11, 8-phenoxy-1,2,3,4,5,6-hexahydroazepino[4,5-b]indole]	0.101 to 1	0.101 to 1	> 10
CN1CCc2[nH]c3cccc(Oc4ccc(F)cc4)c3c2CC1 [Compound 22, 10-(4-fluorophenoxy)-3-methyl-1,2,3,4,5,6-hexahydroazepino[4,5-b]indole]	0.01 to 0.1	< 0.01	> 10
Cn1c2c(c3ccc(OCc4ccccc4)cc31)CCNCC2 [Compound 5, 8-(benzyloxy)-6-methyl-1,2,3,4,5,6-hexahydroazepino[4,5-b]indole]	0.101 to 1	1 to 10	> 10
CN1CCc2[nH]c3cc(Oc4ccccc4)ccc3c2CC1 [Compound 12, 3-methyl-8-phenoxy-1,2,3,4,5,6-hexahydroazepino[4,5-b]indole]	0.101 to 1	1 to 10	> 10
